The source of these data is BindingDB's records for doi:10.1016/s0960-894x(99)00095-5 (Warner-Lambert, 1999).

The target of the experiment is Trypsin (Bos taurus). The experiment is described as follows: In vitro for inhibition of purified bovine trypsin.

pIC50: −log10 of the molar value. Bounds are passed on as bounds.

Take `CN(c1nc2ccccc2c(=O)o1)S(=O)(=O)c1ccc(Cl)c(Cl)c1` [3,4-Dichloro-N-methyl-N-(4-oxo-4H-benzo[d][1,3]oxazin-2-yl)-benzenesulfonamide]: the pIC50 was 5.08. On to `Cc1ccc(S(=O)(=O)N(C)c2nc3ccccc3c(=O)o2)cc1` [4,N-Dimethyl-N-(4-oxo-4H-benzo[d][1,3]oxazin-2-yl)-benzenesulfonamide], for which the negative-log IC50 (pIC50) is 5.35.

`CN(c1nc2ccccc2c(=O)o1)S(=O)(=O)c1ccc(Cl)cc1` [4-Chloro-N-methyl-N-(4-oxo-4H-benzo[d][1,3]oxazin-2-yl)-benzenesulfonamide] showed a pIC50 of 5.89. The figure for `COc1ccc(S(=O)(=O)N(C)c2nc3ccccc3c(=O)s2)cc1` [4-Methoxy-N-methyl-N-(4-oxo-4H-benzo[d][1,3]thiazin-2-yl)-benzenesulfonamide] is under 3.70. The figure for `CN(c1nc2ccccc2c(=O)o1)S(=O)(=O)c1ccc(C(C)(C)C)cc1` [4-tert-Butyl-N-methyl-N-(4-oxo-4H-benzo[d][1,3]oxazin-2-yl)-benzenesulfonamide] is 5.23. The result for `CN(c1nc2ccccc2c(=O)o1)S(=O)(=O)c1ccc([N+](=O)[O-])cc1` [N-Methyl-4-nitro-N-(4-oxo-4H-benzo[d][1,3]oxazin-2-yl)-benzenesulfonamide] reads under 4.00.
